Like-named read-outs stand apart in the source and are kept apart here.

Series [1] in a line: in vivo. As to the method: (§1) Groups of rodents were dosed either intravenously or orally in order to determine certain pharmacokinetic properties, including oral bioavailability and half-life. Bioavailability was determined by comparing plasma exposure following IV dosing in a [19% hydroxypropyl beta-cyclodextrin/5% DMSO in saline] formulation with plasma exposure following dosing by oral gavage in a 0.5% methyl cellulose formulation.

In series [2] the test system is laboratory rodents. From the text: The resident-intruder model is an established preclinical model of aggression and agitation, and allows spontaneous and natural expression of both offensive aggression/agitation and defensive behavior in laboratory rodents in a semi natural laboratory setting. […] The latency to attack and the number of attacks are measures of agitation.

Series [3] has as its target CYP2B6 (Homo sapiens, UniProt P20813). To be noted: recombinant enzyme, 1 h, 2 µM.
Series [4] addresses CYP2C8 (Homo sapiens, UniProt P10632). To be noted: recombinant enzyme, 1 h, 2 µM.
In series [5] the target is CYP2C19 (Homo sapiens, UniProt P33261). To be noted: recombinant enzyme, 1 h, 2 µM.
The target of series [6] is CYP2D6 (Homo sapiens, UniProt P10635). Conditions: recombinant enzyme, 1 h, 2 µM.
Series [7] concerns the target CYP3A4 (Homo sapiens, UniProt P08684). To be noted: recombinant enzyme, 1 h, 2 µM.
A short description of series [8]: Pharmacokinetics after IV or oral dosing in mice. As to the method:
as §1

The nature of series [9]: Pharmacokinetics in rodents, plasma and brain (species not specified). As to the method:
as §1

Series [10] has as its system Mice. To be noted: for Inhibition of distance travelled: 30-minute session. As to the method:
Sedation is assessed in the Locomotor Activity (LMA) model. Mice are placed in a novel chamber and their exploratory activity during a 30-minute session is measured as distance traveled.

Series [11] concerns 7 different human CYP enzymes. In words: Metabolism by panel of human recombinant CYP enzymes, % compound remaining. Conditions: all incubations (7 CYPs); 2 µM; up to 60 min; NADPH.

Chain of CYP2D6 (P10635 whole entry): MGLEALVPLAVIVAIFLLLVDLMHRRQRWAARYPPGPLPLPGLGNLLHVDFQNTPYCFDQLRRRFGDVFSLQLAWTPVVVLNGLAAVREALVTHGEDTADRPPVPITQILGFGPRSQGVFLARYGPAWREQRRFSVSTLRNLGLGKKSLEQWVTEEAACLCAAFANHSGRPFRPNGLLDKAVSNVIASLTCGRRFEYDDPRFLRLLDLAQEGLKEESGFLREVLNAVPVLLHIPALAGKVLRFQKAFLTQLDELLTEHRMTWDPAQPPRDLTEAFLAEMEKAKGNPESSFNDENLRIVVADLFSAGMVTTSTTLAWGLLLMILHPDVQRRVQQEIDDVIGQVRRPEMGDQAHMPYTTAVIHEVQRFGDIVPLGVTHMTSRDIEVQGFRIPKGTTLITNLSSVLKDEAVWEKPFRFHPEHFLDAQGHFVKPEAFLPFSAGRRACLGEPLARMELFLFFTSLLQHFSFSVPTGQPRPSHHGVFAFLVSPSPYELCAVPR
Chain of CYP2C19 (P33261 whole entry): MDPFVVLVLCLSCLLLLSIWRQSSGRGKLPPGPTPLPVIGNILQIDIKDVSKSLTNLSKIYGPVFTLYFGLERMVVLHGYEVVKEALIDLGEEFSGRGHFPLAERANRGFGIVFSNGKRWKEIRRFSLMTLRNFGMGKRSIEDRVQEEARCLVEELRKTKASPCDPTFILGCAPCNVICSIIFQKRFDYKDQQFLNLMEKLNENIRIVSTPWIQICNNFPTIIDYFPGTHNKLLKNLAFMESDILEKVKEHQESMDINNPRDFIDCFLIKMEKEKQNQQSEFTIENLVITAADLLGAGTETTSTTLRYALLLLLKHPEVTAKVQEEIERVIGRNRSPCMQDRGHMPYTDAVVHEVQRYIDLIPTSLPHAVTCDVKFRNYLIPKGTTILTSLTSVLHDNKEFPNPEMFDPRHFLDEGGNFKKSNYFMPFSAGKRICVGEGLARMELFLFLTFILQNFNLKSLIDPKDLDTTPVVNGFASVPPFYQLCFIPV
Chain of CYP2C8 (P10632 whole entry): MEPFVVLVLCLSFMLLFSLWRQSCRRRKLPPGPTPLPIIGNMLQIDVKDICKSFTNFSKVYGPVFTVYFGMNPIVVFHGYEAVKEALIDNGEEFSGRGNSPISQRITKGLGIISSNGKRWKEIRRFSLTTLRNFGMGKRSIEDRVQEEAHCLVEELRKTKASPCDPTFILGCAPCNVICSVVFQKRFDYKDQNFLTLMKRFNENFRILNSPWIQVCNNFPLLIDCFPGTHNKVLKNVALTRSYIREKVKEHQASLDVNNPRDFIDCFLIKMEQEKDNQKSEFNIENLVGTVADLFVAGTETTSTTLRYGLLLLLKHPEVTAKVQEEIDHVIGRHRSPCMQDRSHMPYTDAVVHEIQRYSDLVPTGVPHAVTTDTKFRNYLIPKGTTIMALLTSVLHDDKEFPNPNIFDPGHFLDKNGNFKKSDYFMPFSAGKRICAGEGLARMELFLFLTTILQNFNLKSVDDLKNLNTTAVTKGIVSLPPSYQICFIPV
Chain of CYP3A4 (P08684 whole entry): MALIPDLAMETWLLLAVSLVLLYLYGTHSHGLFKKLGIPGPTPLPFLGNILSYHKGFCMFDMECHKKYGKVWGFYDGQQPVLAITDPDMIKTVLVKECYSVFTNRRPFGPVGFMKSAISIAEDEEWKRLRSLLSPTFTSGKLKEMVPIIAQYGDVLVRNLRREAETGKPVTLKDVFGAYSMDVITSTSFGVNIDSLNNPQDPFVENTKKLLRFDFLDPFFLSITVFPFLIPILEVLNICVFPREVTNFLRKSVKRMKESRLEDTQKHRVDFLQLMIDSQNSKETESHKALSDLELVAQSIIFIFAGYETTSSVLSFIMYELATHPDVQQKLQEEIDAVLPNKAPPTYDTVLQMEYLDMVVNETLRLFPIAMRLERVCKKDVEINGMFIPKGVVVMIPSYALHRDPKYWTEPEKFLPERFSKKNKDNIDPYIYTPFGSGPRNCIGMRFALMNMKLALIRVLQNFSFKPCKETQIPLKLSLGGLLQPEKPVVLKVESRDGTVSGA
Chain of CYP2B6 (P20813 whole entry): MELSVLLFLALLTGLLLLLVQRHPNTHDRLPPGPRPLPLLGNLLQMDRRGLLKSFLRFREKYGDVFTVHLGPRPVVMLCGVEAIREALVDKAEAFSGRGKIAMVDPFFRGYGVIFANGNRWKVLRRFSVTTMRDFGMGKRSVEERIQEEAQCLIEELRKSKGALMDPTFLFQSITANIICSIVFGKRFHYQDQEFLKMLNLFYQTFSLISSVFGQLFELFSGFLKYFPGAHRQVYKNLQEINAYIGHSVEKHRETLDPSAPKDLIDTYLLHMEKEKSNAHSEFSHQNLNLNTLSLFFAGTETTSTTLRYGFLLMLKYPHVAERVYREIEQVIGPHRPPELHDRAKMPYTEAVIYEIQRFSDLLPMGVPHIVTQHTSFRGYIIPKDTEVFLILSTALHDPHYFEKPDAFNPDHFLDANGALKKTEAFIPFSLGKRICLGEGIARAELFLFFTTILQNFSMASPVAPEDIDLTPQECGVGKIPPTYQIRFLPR

In [1] (rat, in vivo, po), `Cc1c(CO)cccc1[C@@H](C)c1c[nH]cn1` [(R)-(3-(1-(1H-imidazol-4-yl)ethyl)-2-methylphenyl)methanol] had a bioavailability of 7%.
`Cc1cccc([C@H](C)c2cnc[nH]2)c1C` [dexmedetomidine]: the bioavailability in series [1] (rat, in vivo, po) is 8.6%. Besides, in series [1] (rat, in vivo, po), the half-life was 2 h. The compound further had an Inhibition of attacks in series [2] (0.2 mg/kg) of 20%. Moreover, the “% of compound remaining” value in series [3] was 28%; in series [4], 84%; in series [5], 74%; in [6], 7%; in series [7], 89%.
For the compound `Cc1c(CO)cccc1[C@H](C)c1c[nH]cn1`, the results for the “Time to maximum plasma concentration” value in [8] (mice) and in series [1] (rats) were at most 10 min and at most 17 min, respectively. In addition, the bioavailability in series [8] (mouse, plasma, oral) is at most 51%; in [1] (rat, in vivo), at most 34%. For the same compound, the “Mean decrease of levels in plasma and brain” value in [9] (between 2 and 8 hrs) is given as below 2 fold. In addition, the “Time to achieve pharmacological concentrations in the brain” value in [9] (brain) is recorded as at most 30 minutes. The same compound gave a half-life in series [9] (plasma, po) of 4.2 to 7 h. Besides, the “Half-life relative to dexmedetomidine (longer)” value in [9] (rodents (mice and rats), plasma, oral) is reported as 2- to 4 fold. Also, in series [2] (1 mg/kg), the “Activity in resident-intruder model” value was “minimal activity”. Also, the “Sedation in LMA model” value in series [10] (1 mg/kg) is “minimally sedating”. Also, the “Inhibition of distance travelled” value in [10] (2 mg/kg) was “about 25%”; in [10] (3 mg/kg), below 50%. For the same compound, the “Maximum achievable level of activity in the LMA model” value in series [10] (compared with dexmedetomidine) was “less than the maximum achievable level of activity with dexmedetomidine”. For the same compound, the “Concentration as % of the starting concentration” value in series [11] is above 90%.

The bioavailability is dose-corrected exposure relative to a reference, in per cent. Lower therefore signals little systemic uptake. For orientation: half-life means the time in which the quantity being followed falls by half. A high value points to slow loss.

Values taken from patent US20260207559A1, “(S)-(3-(1-(1H-IMIDAZOL-4-YL)ETHYL)-2-METHYLPHENYL)METHANOL FOR TREATMENT OF AGITATION” (Alceptor Therapeutics, Inc., priority 2022, published 2026).
